Test results taken from the NIST ThermoML archive (doi:10.1021/acs.jced.7b00221).

Conditions: 100 kPa, Liquid; for mass density: Vibrating tube method; for viscosity: Cone and plate viscometry

CCCCCC[n+]1ccn(C)c1.O=S(=O)([N-]S(=O)(=O)C(F)(F)F)C(F)(F)F
Conditions	mass density [kg/m3]
283.15 K	1385.6
288.15 K	1381
293.15 K	1376.5
295.15 K	1374.6
298.15 K	1371.9
303.15 K	1367.3
308.15 K	1362.8
313.15 K	1358.3
318.15 K	1353.7
323.15 K	1349.2
328.15 K	1344.7
333.15 K	1340.3
338.15 K	1335.8
343.15 K	1331.4
348.15 K	1326.9
353.15 K	1322.5

CCCCCCn1cc[n+](C)c1C.O=S(=O)([N-]S(=O)(=O)C(F)(F)F)C(F)(F)F
Conditions	mass density [kg/m3]
283.15 K	1373
288.15 K	1368.4
293.15 K	1363.9
295.15 K	1362.1
298.15 K	1359.5
303.15 K	1355.1
308.15 K	1350.8
313.15 K	1346.4
318.15 K	1342
323.15 K	1337.6
328.15 K	1333.2
333.15 K	1328.9
338.15 K	1324.5
343.15 K	1320.2
348.15 K	1315.8
353.15 K	1311.5

CCCC[n+]1ccn(C)c1.O=S(=O)([N-]S(=O)(=O)C(F)(F)F)C(F)(F)F
Conditions	mass density [kg/m3]	viscosity [mPa·s]
278.15 K	–	138
283.15 K	1451.1	104
288.15 K	1446.3	80
293.15 K	1441.5	63
295.15 K	1439.6	–
298.15 K	1436.8	51
303.15 K	1432	–
308.15 K	1427.3	–
313.15 K	1422.7	–
318.15 K	1418	–
323.15 K	1413.3	–
328.15 K	1408.7	–
333.15 K	1404.1	–
338.15 K	1399.4	–
343.15 K	1394.8	–
348.15 K	1390.2	–
353.15 K	1385.7	–

CCn1cc[n+](C)c1.O=S(=O)([N-]S(=O)(=O)C(F)(F)F)C(F)(F)F
Conditions	mass density [kg/m3]	viscosity [mPa·s]
278.15 K	–	80
283.15 K	1534.1	63
288.15 K	1529	50
293.15 K	1523.9	–
295.15 K	1521.9	–
298.15 K	1518.9	–
303.15 K	1513.9	–
308.15 K	1508.9	–
313.15 K	1503.9	–
318.15 K	1499	–
323.15 K	1494.1	–
328.15 K	1489.1	–
333.15 K	1484.2	–
338.15 K	1479.3	–
343.15 K	1474.4	–
348.15 K	1469.6	–
353.15 K	1464.7	–

CCCCCCn1cc[n+](C)c1.N#Cc1ccc[n-]1 [1-hexyl-3-methylimidazolium 2-cyanopyrrolide]
Conditions	viscosity [mPa·s]
278.15 K	1540
283.15 K	902
288.15 K	553
293.15 K	355
298.15 K	239
303.15 K	167
308.15 K	122
313.15 K	91
318.15 K	70
323.15 K	55

CCCCCCCC[P+](CC)(CC)CC.O=[N+]([O-])c1cn[n-]c1 [triethyloctylphosphonium 4-nitropyrazolide]
Conditions	mass density [kg/m3]
283.15 K	1040.7
288.15 K	1037.7
293.15 K	1034.6
295.15 K	1033.4
298.15 K	1031.5
303.15 K	1028.5
308.15 K	1025.5
313.15 K	1022.6
318.15 K	1019.6
323.15 K	1016.7
328.15 K	1013.8
333.15 K	1010.8
338.15 K	1007.9
343.15 K	1005
348.15 K	1002.1
353.15 K	999.2

CCCCCCCCCCCCCC[P+](CCCCCC)(CCCCCC)CCCCCC.N#Cc1ccc[n-]1 [trihexyl(tetradecyl)phosphonium 2-cyanopyrrolide]
Conditions	viscosity [mPa·s]
278.15 K	1764
283.15 K	1179
288.15 K	804
293.15 K	563
298.15 K	404
303.15 K	297
308.15 K	223
313.15 K	170
318.15 K	133
323.15 K	106
